The text below walks through data of patent publication US8916536B2, “Bone-targeting bisphosphonate duplex drugs” (priority 2010, dated 2014).

The nature of data set [1]: Hydroxyapatite binding of nucleoside-BPs. The format is physicochemical. The procedure:
It is known that the BPs moiety of conjugates preserves its high affinity for the bone matrix even when coupled to a bulk residue^17,41 The high affinity to the bone matrix is based on the strong binding properties of BPs to hydroxyapatite^42, 43, 44. For this reasons, we analyzed the adsorption properties of 5-FdU-ale and 5-FdU to hydroxyapatite.
5-FdU (246 mg, 1 mmol) or 5-FdU-ale (475 mg) were dissolved in distilled water (100 ml). The A260-units of the obtained solution and the absorbance ratios of 250/260 and 280/260 were determined using an UV-spectrophotometer. After addition of solid hydroxyapatite as listed in Table 2 the obtained suspension was stirred at room temperature for 24 h. Then, an aliquot (1 ml) of the suspension was filtered through a sterile filter and the A260-units of the filtrate were measured. The amount of drug bound to hydroxyapatite was calculated on the basis of the decreased A260-units of the suspension.
(§1) A solution of 5-FdU-ale (475 mg) in 100 ml H2O was acidified to pH 2 by adding HCl and stirred at 50° C. for 24 h, followed by neutralization with solid sodium carbonate. UV-active degradation products were not detectable at 254 nm by TLC-analysis with CHCl3/MeOH (80:20) using silica gel plates. The hydroxyapatite binding of the pretreated 5-FdU-ale was analyzed as described above.

The test system of another data set is OVCAR-3. As to the kind of experiment: NCI 60-cell line in vitro screen (SRB), growth percent. The format is cell-based. Particulars: OVCAR-3, Ovarian cancers; 10 μM, 48 h incubation; 100% = growth without drug.
In the next data set the test system is MDA-MB-435. The description is as above. It counts as cell-based. Particulars: MDA-MB-435, Melanomas; 10 μM, 48 h incubation; 100% = growth without drug.
In another data set the test system is MALME-3M. Described as above. The format is cell-based. The settings on record: Melanomas, 10 μM, 48 h incubation, 100% = growth without drug.
In the next data set the test system is NCI-H322M. The description is as above. The format is cell-based. The settings on record: Non-small cell lung cancer, 10 μM, 48 h incubation, 100% = growth without drug.
Another data set deals with SF-539. Described as above. It counts as cell-based. The settings on record: SF-539, CNS cancer; 10 μM, 48 h incubation; 100% = growth without drug.
For the next data set, the system named is EKVX. The description is as above. The format is cell-based. The settings on record: Non-small cell lung cancer, 10 μM, 48 h incubation, 100% = growth without drug.
The next data set deals with CAKI-1. Described as above. It counts as cell-based. The settings on record: CAKI-1, Renal cancers; 10 μM, 48 h incubation; 100% = growth without drug.
Data set [2] can be described thus: Stability in acidic conditions (pH 2, 50° C., 24 h; TLC / UV ratio). The format is physicochemical. The procedure:
as §1
The binding study was also used for an indirect assessment of the stability of the nucleoside-BPs in acidic conditions. Binding was reduced by 13% compared to the untreated compound when a solution of 5-FdU-ale was acidified to pH 2 and kept at 50° C. during 24 h prior to the adsorption to hydroxyapatite. The unchanged A250/260 and 280/260 UV-ratio indicate that no cleavage of 5-FdU-ale into the monomer 5-FdU+ ale occurs during treatment with hydroxyapatite under the used conditions.
Thus, the absence of UV-active compounds allows to conclude that 5-FdU-ale is very stable in acidic conditions.

In a further data set the test system is SNB-75. As to the kind of experiment: NCI 60-cell line in vitro screen (SRB), growth percent. The format is cell-based. Particulars: SNB-75, CNS cancer; 10 μM, 48 h incubation; 100% = growth without drug.
Another data set has as its system 60 tumor cell lines. As to the kind of experiment: NCI 60-cell line in vitro screen, whole panel. Particulars: 48/59 cell lines; 10 μM, 48 h incubation. The format is cell-based.
The next data set has as its system HOP-62. Kind of data set: NCI 60-cell line in vitro screen (SRB), growth percent. It counts as cell-based. The settings on record: HOP-62, Non-small cell lung cancer; 10 μM, 48 h incubation; 100% = growth without drug.
For another data set, the system named is SF-268. The description is as above. Particulars: SF-268, CNS cancer; 10 μM, 48 h incubation; 100% = growth without drug. It counts as cell-based.
Another data set relates to HL-60 (TB). The data set is described as above. Particulars: Leukemia, 10 μM, 48 h incubation, 100% = growth without drug. It counts as cell-based.
The test system of data set [3] is 6 different tumor cell lines. Particulars: 6 days of incubation, in average, read-out: concentration for 50% growth inhibition; cited from earlier work.
Where [4] appears, read: hydroxyapatite 7 g, drug in 100 ml water, 24 h room temperature.
Where [5] appears, read: hydroxyapatite 5 g, drug in 100 ml water, 24 h room temperature.
[6] abbreviates: hydroxyapatite 7 g, acid pretreatment (pH 2, 50° C., 24 h, then neutralized).

SMILES strings stand for the structures. pIC50: −log10 of the molar value. Structures can show the parent of a compound that is named as a salt.

In data set [1] (setting [4]), `O=c1[nH]c(=O)n([C@H]2C[C@H](O)[C@@H](CO)O2)cc1F` [5-FdU, 2′-deoxy-5-fluorouridine, reference compound] returned a Bound drug % of 15% and a Bound drug mg of 37 mg.

Consider `O=c1nc(NCCCC(O)(P(=O)(O)O)P(=O)(O)O)c(F)cn1C1CC(O)C(CO)O1` (centres unmarked) [6a, N^4-[butyl-(4-hydroxy-4-phosphono)phosphonate]-5-fluoro-2′-deoxycytidine], for which the “Growth [%]” value with OVCAR-3 stood at 88.34%; in the data set on MDA-MB-435, 86.95%; with MALME-3M, 89.24%; in the data set on NCI-H322M it was 88.84%; in the data set with SF-539 it was 94.79%; with EKVX it was 82.45%. Moreover, the “Growth [%]” value with CAKI-1 is given as 79.14%; in the data set with SNB-75, 87.12%; in the data set on HOP-62, 93.16%; in the data set with SF-268 it was 86.64%; in the data set with HL-60 (TB) it was 61.75%. Moreover, the “cleavage into the monomers 5-FdU + ale” value in data set [2] (during treatment with hydroxyapatite, unchanged A250/260 and 280/260 UV-ratio) is “no cleavage”. The “stability in acidic conditions” value in data set [2] (pH 2, 50° C., 24 h, TLC of supernatant, no UV-active compounds) was “very stable”. Moreover, in the data set with 60 tumor cell lines, the “growth inhibition in the other cell lines” value is on record as “did not show any growth inhibition”. The “reduction of binding compared to the untreated compound” value in [1] (acidified to pH 2, 50° C., 24 h prior to adsorption) was determined as 13%. Further, the Bound drug % in data set [1] (setting [5]) was found to be 41%; in data set [1] (setting [6]), 74%; in data set [1] (setting [4]) it was 87%. Further, the figures for the Bound drug mg in data set [1] (setting [5]), in [1] (setting [6]) and in data set [1] (setting [4]) were 195 mg, 352 mg and 414 mg, respectively. Moreover, in data set [1] (hydroxyapatite 7 g), the “adsorption to hydroxyapatite relative to 5-FdU” value is reported as “approximately sixfold higher”.

As for `O=P(O)(O)C(Cl)(Cl)P(=O)(O)O` [Clondronat], the pIC50 in data set [3] was 2.85 to 6.00.

As to `NCCCC(O)(P(=O)(O)O)P(=O)(O)O` [alendronate, (4-Amino-1-hydroxy-1-phosphonobutyl)phosphonate monosodium salt*3H20], the pIC50 in data set [3] is 2.73 to 4.96.
